# Literature values in article PMC8711005, “Phase 1 Dose-Escalation Study of Plasma Kallikrein Inhibitor THR-149 for the Treatment of Diabetic Macular Edema” (Translational Vision Science & Technology, 2021).
# Test system: subjects with center-involved DME
# Settings: single IVT injection, 14 subjects with center-involved DME, Month 3
# Source text: A recent phase I study of another PKal inhibitor, KVD001, enrolled 14 subjects with center-involved DME who had received prior anti-VEGF treatment.[30] Baseline demographics were similar to those in the current study, with some notable differences in baseline ocular characteristics, including higher baseline BCVA and lower CST relative to those enrolled in our study. The maximum BCVA increase following a single IVT injection of KVD001 was 4.1 ETDRS letters at Month 3, with a corresponding mean reduction of 23 µm in CST. Rescue treatment was allowed; however, the frequency and imputation method ...
smiles,measurement,value
CCOc1ccc(C[C@@H](NC(=O)c2ccccc2)C(=O)N[C@@H](Cc2ccccc2)C(=O)NCc2ccc(CN)cc2)cc1 [KVD001],Maximum BCVA increase,4.1 ETDRS letters
same,Mean reduction in CST,23 µm
